“And” between values parts separate entries of the source, which are not always exact repeats. Equal values may be shown once. Toxic doses and inconclusive results are not listed.

For this assay, the system named is CD2F1 mice, L1210 leukemia ip, survival T/C. Nature of the assay: NCI In Vivo Anticancer Drug Screen. Data for tumor model L1210 Leukemia (intraperitoneal) in CD2F1 (CDF1) mice. To be noted: endpoint: mean survival time, higher = longer survival. In short, it runs like this: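 Mice carrying a transplanted tumor received test compound or vehicle alone. The value is the measurement in the treated group divided by that in the vehicle-treated control group.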

The mark [1] stands for this setting: dose: 100.0 mg/kg/injection, schedule: Q01DX009 (ip), vehicle: saline with Tween-80.
Where [2] appears, read: dose: 200.0 mg/kg/injection, schedule: Q01DX009 (ip), vehicle: saline with Tween-80.
The mark [3] stands for this setting: dose: 400.0 mg/kg/injection, schedule: Q01DX009 (ip), vehicle: saline with Tween-80.
Where [4] appears, read: dose: 100.0 mg/kg/injection, schedule: Q04DX003 (ip), vehicle: saline with Tween-80.
Where [5] appears, read: dose: 200.0 mg/kg/injection, schedule: Q04DX003 (ip), vehicle: saline with Tween-80.
The mark [6] stands for this setting: dose: 400.0 mg/kg/injection, schedule: Q04DX003 (ip), vehicle: saline with Tween-80.
The mark [7] stands for this setting: dose: 100.0 mg/kg/injection, schedule: Q01DX001 (ip), vehicle: saline with Tween-80.
Where [8] appears, read: dose: 200.0 mg/kg/injection, schedule: Q01DX001 (ip), vehicle: saline with Tween-80.
[9] abbreviates: dose: 400.0 mg/kg/injection, schedule: Q01DX001 (ip), vehicle: saline with Tween-80.
Setting [10] is: dose: 50.0 mg/kg/injection, schedule: Q01DX009 (ip), vehicle: saline with Tween-80.
Setting [11] is: dose: 400.0 mg/kg/injection, schedule: Q01DX001 (ip), vehicle: saline.
[12] abbreviates: dose: 100.0 mg/kg/injection, schedule: Q01DX001 (ip), vehicle: saline.
Setting [13] is: dose: 200.0 mg/kg/injection, schedule: Q01DX001 (ip), vehicle: saline.

`C1CNC2NCCNC2N1` (stereo not drawn): the T/C is 101 % of control under setting [1]; 109 % of control (dose: 100.0 mg/kg/injection, schedule: Q04DX003 (ip), vehicle: saline sonified); 102 % of control under setting [2]; 103 % of control (dose: 200.0 mg/kg/injection, schedule: Q04DX003 (ip), vehicle: saline sonified); 108 % of control under setting [3]; 115 % of control (dose: 400.0 mg/kg/injection, schedule: Q04DX003 (ip), vehicle: saline sonified).

As to `Cc1ccnc(NC2=CC(=O)C(=O)c3ccccc32)c1`, the T/C reads like this: (dose: 100.0 mg/kg/injection, schedule: Q01DX009 (ip), vehicle: saline sonified) 108 % of control; (dose: 200.0 mg/kg/injection, schedule: Q01DX009 (ip), vehicle: saline sonified) 103 % of control.

As for `C[Si](C)(C)Nc1ncnc2c1ncn2[Si](C)(C)C`, the T/C was 94 % of control under setting [1]; 103 % of control under setting [4]; 105 % of control under setting [2]; 103 % of control under setting [5]; 106 % of control under setting [3]; 101 % of control under setting [6].

With `Cc1ccc(C(=O)C(F)(F)F)cc1`, the T/C under setting [7] is 104 % of control, the T/C under setting [8] was 101 % of control and the T/C under setting [9] is 96 % of control.

`Clc1ccc2c(c1)Nc1cc(Cl)ccc1C=C2`: the T/C under setting [4] is 98 % of control, the T/C under setting [5] was 93 % of control and the T/C under setting [6] was 87 % of control.

In the case of `Cc1ccc(S(=O)(=O)/C=C(\C=C/c2ccccc2)c2ccccc2)cc1`, the T/C is, setting by setting: under setting [10], 103 % of control; under setting [1], 103 % of control; under setting [2], 106 % of control.

For the compound `OCCC1CC1=C1CC1` (stereo not drawn), the T/C is 101 % of control (dose: 100.0 mg/kg/injection, schedule: Q04DX003 (ip), vehicle: Klucel (hydroxypropylcellulose) (HPC)) and 101 % of control (dose: 200.0 mg/kg/injection, schedule: Q04DX003 (ip), vehicle: Klucel (hydroxypropylcellulose) (HPC)).

Regarding `Nc1nc(=S)c2ncn(C3OC(CO)C(O)C3O)c2[nH]1` (stereo not drawn), the T/C was 154 % of control (dose: 1.0 mg/kg/injection, schedule: Q01DX005 (ip), vehicle: saline + alcohol); 152 % of control (dose: 2.0 mg/kg/injection, schedule: Q01DX005 (ip), vehicle: saline + alcohol); 150 % of control (dose: 4.0 mg/kg/injection, schedule: Q01DX005 (ip), vehicle: saline + alcohol); 151 % of control (dose: 10.0 mg/kg/injection, schedule: Q03DX003 (ip), vehicle: saline); 163 % of control (dose: 10.0 mg/kg/injection, schedule: Q04DX003 (ip), vehicle: saline); 107 % of control (dose: 20.0 mg/kg/injection, schedule: Q01DX007 (ip), vehicle: saline). In addition, the T/C was 151 % of control (dose: 20.0 mg/kg/injection, schedule: Q03DX003 (ip), vehicle: saline); 150 % of control (dose: 20.0 mg/kg/injection, schedule: Q04DX003 (ip), vehicle: saline); 113 % of control (dose: 37.5 mg/kg/injection, schedule: Q01DX009 (ip), vehicle: saline); 95 % of control (dose: 40.0 mg/kg/injection, schedule: Q01DX009 (ip), vehicle: saline); 164 % of control (dose: 40.0 mg/kg/injection, schedule: Q04DX003 (ip), vehicle: saline); 89 % of control (dose: 75.0 mg/kg/injection, schedule: Q01DX009 (ip), vehicle: saline). Further, the T/C runs as follows: (dose: 178.0 mg/kg/injection, schedule: Q01DX001 (ip), vehicle: saline) 152 % of control; (dose: 267.0 mg/kg/injection, schedule: Q01DX001 (ip), vehicle: saline) 152 % of control; under setting [11], 159 % of control.

Turning to `CN1NC2(O)C(=O)N(C3CCCCC3)CC2C1c1ccccc1` (stereo not drawn), the T/C reads like this: under setting [4], 86 % of control; under setting [5], 93 % of control; under setting [6], 101 % of control.

Consider `CCCCNC(=O)Oc1ccc(C(=O)OCC)cc1`, for which the T/C was 100 % of control (dose: 25.0 mg/kg/injection, schedule: Q01DX009 (ip), vehicle: saline with Tween-80); 97 % of control under setting [10]; 97 % of control and 100 % of control under setting [1]; 96 % of control under setting [4]; 96 % of control under setting [5]; 90 % of control under setting [6].

As to `Cc1cc(N(CCCl)CCCl)ccc1C1N(Cc2ccc(N(C)C)cc2)CCCN1Cc1ccc(N(C)C)cc1`, the T/C is 101 % of control under setting [1]; 98 % of control under setting [4]; 101 % of control under setting [2]; 101 % of control under setting [5]; 108 % of control under setting [3]; 108 % of control under setting [6].

For the compound `COc1cc2c(cc1OC)C(Cc1ccc([N+](=O)[O-])cc1)=NCC2`, the T/C reads like this: under setting [12], 96 % of control; under setting [13], 96 % of control; under setting [11], 102 % of control.

Take `NC(=O)c1ncnnc1N`: the T/C is, setting by setting: (dose: 100.0 mg/kg/injection, schedule: Q01DX001 (ip), vehicle: carboxymethylcellulose (CMC)) 93 % of control; (dose: 200.0 mg/kg/injection, schedule: Q01DX001 (ip), vehicle: carboxymethylcellulose (CMC)) 102 % of control; (dose: 400.0 mg/kg/injection, schedule: Q01DX001 (ip), vehicle: carboxymethylcellulose (CMC)) 102 % of control.

As to `COC(=O)c1c2ccccc2[n+](C)c2ccccc12`, the T/C runs as follows: (dose: 12.5 mg/kg/injection, schedule: Q01DX009 (ip), vehicle: saline) 95 % of control; (dose: 25.0 mg/kg/injection, schedule: Q01DX009 (ip), vehicle: saline) 95 % of control; (dose: 50.0 mg/kg/injection, schedule: Q01DX009 (ip), vehicle: saline) 100 % of control; under setting [12], 91 % of control; under setting [13], 96 % of control.

`CN(Cc1ccccc1)C1CCC(C(=O)O)CC1` (stereo not drawn): the T/C is, setting by setting: (dose: 100.0 mg/kg/injection, schedule: Q01DX009 (ip), vehicle: saline) 107 % of control; (dose: 200.0 mg/kg/injection, schedule: Q01DX009 (ip), vehicle: saline) 107 % of control; (dose: 400.0 mg/kg/injection, schedule: Q01DX009 (ip), vehicle: saline) 100 % of control.

On to `COc1cc(OC)c(NC(=O)Oc2ccccc2F)cc1Cl`, for which the T/C under setting [10] is 92 % of control, the T/C under setting [1] was 100 % of control and the T/C under setting [2] was 100 % of control.

Regarding `O=C(Nc1cc(Cl)ccc1Cl)c1ccc(Cl)cc1Cl`, the T/C reads like this: under setting [10], 92 % of control; under setting [1], 87 % of control; under setting [4], 90 % of control; under setting [2], 92 % of control; under setting [5], 88 % of control.

In the case of `Nc1cc2[nH]cnc2c([Se])n1`, the T/C by setting is: under setting [4], 101 % of control; under setting [5], 107 % of control.

As for `CCN(C(=O)c1ccc(C(=O)N(CC)c2ccccc2)cc1)c1ccccc1`, the T/C is 95 % of control under setting [1], 101 % of control under setting [2] and 90 % of control under setting [3].

As to `O=C(O)CCn1ccccc1=O`, the T/C was 94 % of control under setting [1]; 95 % of control under setting [4]; 93 % of control under setting [2]; 96 % of control under setting [5]; 94 % of control under setting [3]; 95 % of control under setting [6].

Take `CC(=O)Nc1nc(C)c(CC/C=C/c2ccc([N+](=O)[O-])cc2)c(=O)[nH]1`: the T/C under setting [4] was 94 % of control, the T/C under setting [5] is 97 % of control and the T/C under setting [6] is 90 % of control.

With `CCOC(=O)/C=C(/Nc1ccc(S(=O)(=O)F)cc1)c1ccccc1`, the T/C reads like this: (dose: 100.0 mg/kg/injection, schedule: Q01DX009 (ip), vehicle: Klucel (hydroxypropylcellulose) (HPC)) 100 % of control; (dose: 200.0 mg/kg/injection, schedule: Q01DX009 (ip), vehicle: Klucel (hydroxypropylcellulose) (HPC)) 100 % of control; (dose: 400.0 mg/kg/injection, schedule: Q01DX009 (ip), vehicle: Klucel (hydroxypropylcellulose) (HPC)) 97 % of control.

Turning to `CCCCCCCCCCCCCCCCCCCOc1ccc(OCCCCCCCCCCCC)cc1`, the T/C runs as follows: under setting [7], 93 % of control; under setting [8], 89 % of control; under setting [9], 88 % of control.

On to `O=C1C(c2ccccc2)=C(c2ccccc2)CC(c2ccccc2)C1c1ccccc1` (stereo not drawn), for which the T/C is 97 % of control under setting [4], 97 % of control under setting [5] and 95 % of control under setting [6].

Take `C(=C/C1CCCCC1)/C=C/C1CCCCC1`: the T/C runs as follows: under setting [10], 103 % of control; under setting [1], 92 % of control; under setting [2], 107 % of control.

Turning to `NC(=O)N/N=C\c1ccc(O)cn1`, the T/C reads like this: under setting [1], 93 % of control; under setting [2], 93 % of control; under setting [3], 92 % of control.

For `COc1cc(OC)c(NC(=O)Oc2c(Cl)cccc2Cl)cc1Cl`, the T/C reads like this: under setting [10], 94 % of control; under setting [1], 97 % of control.

Values taken from PubChem BioAssay AID256 (DTP/NCI, 2004).
